In PubChem BioAssay AID687005 (Broad Institute, 2013):
Results filed as inconclusive are left out. Activity calls are given as the source filed them.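 Rule for the calls: active = Compounds that reduce signal, with fitted half-maximal dose at or under twice the top valid tested dose; inconclusive = Poor fit, or flat curve losing 30 to 70% of signal; inactive = Potency past limit, flat within 30%, or opposite direction.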

Assay: HEK293T cell cytotoxicity, dose response, cytotoxicity control, ATP luminescence, cherry-pick samples (AID 687005)
Conditions: HEK293T viability, ATP luminescence (CellTiter-Glo), 48 h; at 23.5 µM (top of the series)

| Compound | activity change, negative = cytotoxicity |
| --- | --- |
| CC(C)NC(=O)Nc1ccc2c(c1)CC(=O)N([C@@H](C)CO)C[C@H](C)[C@H](CN(C)Cc1ccc3c(c1)OCO3)O2 | 26.2% (inactive) |
| C[C@H](CO)N1C[C@H](C)[C@H](CN(C)Cc2cccc(C(F)(F)F)c2)OCc2cnnn2CCCC1=O | 0.8% (inactive) |
| C[C@@H]1CCCCO[C@@H](CN(C)C(=O)Nc2ccc3c(c2)OCO3)[C@@H](C)CN([C@H](C)CO)C(=O)c2cc(NC(=O)Nc3cccc4ccccc34)ccc2O1 | -9.79% (inactive) |
| CNC(=O)C[C@H]1CC[C@H]2[C@H](COc3ccc(NC(=O)c4cc(C)on4)cc3C(=O)N2C)O1 | -23.4% (inactive) |
| C[C@@H]1CN([C@H](C)CO)C(=O)Cc2cc(NC(=O)Nc3cccc4ccccc34)ccc2O[C@@H]1CN(C)Cc1ccc(C(=O)O)cc1 | -26.3% (inactive) |

Same assay, conditions: HEK293T viability, ATP luminescence (CellTiter-Glo), 48 h; at 26 µM (top of the series)

| Compound | activity change, negative = cytotoxicity |
| --- | --- |
| C[C@H]1CN([C@@H](C)CO)C(=O)c2cccc(NS(=O)(=O)c3cn(C)cn3)c2O[C@@H]1CN(C)CC1CCCCC1 | -5.42% (inactive) |
| O=C(Nc1ccc(F)cc1)N1C[C@@H]2[C@H](c3ccccc31)[C@H](CO)N2Cc1cocn1 | -11.6% (inactive) |
| CCC(C)c1ccc(NC(=S)N2CCN(c3ccccn3)CC2)cc1 (configuration not stated) | 13.7% (inactive) |
| C[C@H](NC(=O)C[C@@H]1CC[C@@H]2[C@H](COC[C@@H](O)CN2C(=O)Nc2cccc(F)c2)O1)c1ccccc1 | -12.7% (inactive) |
| CCCC(=O)N1CCCC1(C)C(=O)Nc1cc(C)ccc1C (configuration not stated) | 3.87% (inactive) |
| C[C@@H]1CCCCO[C@H](CN(C)Cc2ccc3c(c2)OCO3)[C@H](C)CN([C@H](C)CO)C(=O)c2cc(NC(=O)Nc3cccc4ccccc34)ccc2O1 | 171% (inactive) |
| C[C@@H]1CN([C@H](C)CO)S(=O)(=O)c2ccc(C#C[C@@H](C)O)cc2O[C@@H]1CN(C)Cc1ccncc1 | -20.8% (inactive) |
| COc1ccccc1C(=O)Nc1ccc2c(c1)C(=O)N(C)C[C@@H](OC)[C@H](C)CN(C)[C@@H](C)CO2 | 0.103% (inactive) |
| CCC(=O)Nc1ccc2c(c1)OC[C@H](C)N(C(=O)c1ccc(F)cc1)C[C@@H](C)[C@@H](OC)CN(C)C2=O | 62.2% (inactive) |
| C[C@@H]1CN([C@@H](C)CO)C(=O)c2cc(-c3cncnc3)cnc2O[C@H]1CN(C)C(=O)Cc1ccccc1 | -0.143% (inactive) |
| CCc1ccc(NC(=O)[C@H](C)NC(=O)C2CCN(C(=O)[C@@H](N)C(C)C)CC2)cc1 | -17.1% (inactive) |
| C[C@H]1CN([C@@H](C)CO)S(=O)(=O)c2ccc(C#Cc3cccc(F)c3)cc2O[C@@H]1CN(C)C | -49.7% (inactive) |
| CN1C(=O)c2cc(NS(=O)(=O)c3cccc(F)c3)ccc2OC[C@H]2O[C@H](CC(=O)O)CC[C@H]21 | 29.9% (inactive) |
| Cc1ccc(C2CC(c3cccs3)=NN2C(=O)c2ccc(Br)o2)cc1 (configuration not stated) | 39% (inactive) |
| C[C@H]1CN([C@@H](C)CO)C(=O)c2cccc(NS(=O)(=O)c3ccc(Cl)cc3)c2O[C@@H]1CN(C)CC1CC1 | 18% (inactive) |
| O=C(c1cc(Br)ccc1Cl)N1CCN(c2ccccn2)CC1 | -6.43% (inactive) |
| CCN(Cc1ccccc1)C(=O)COc1ccccc1 | -2.56% (inactive) |
| CO[C@H](CN(C)Cc1cc(F)ccc1F)[C@@H](C)CN([C@@H](C)CO)S(=O)(=O)c1ccc(F)cc1 | 14.8% (inactive) |
| CNC[C@@H]1Oc2c(NS(=O)(=O)c3cccs3)cccc2C(=O)N([C@@H](C)CO)C[C@H]1C | 28.1% (inactive) |
| CCNC(=O)C[C@@H]1CC[C@H]2[C@@H](COC[C@@H](O)CN2S(=O)(=O)c2ccccc2F)O1 | 51.2% (inactive) |

| Compound | activity change, negative = cytotoxicity |
| --- | --- |
| COc1ccc(CN(C)C[C@H]2Oc3ccc(NS(C)(=O)=O)cc3CC(=O)N([C@@H](C)CO)C[C@H]2C)cc1 | -1.35% (inactive) |
| CO[C@H](CN(C)Cc1ccc2c(c1)OCO2)[C@@H](C)CN(C(=O)c1ccccc1)[C@@H](C)CO | -12.9% (inactive) |
| CC1=C(C(=O)OCc2ccccc2)C(c2ccccc2)NC(=O)N1 (configuration not stated) | 13.2% (inactive) |
| CN1C(=O)c2cc(NS(=O)(=O)c3cccc(F)c3)ccc2OC[C@@H]2O[C@@H](CC(=O)O)CC[C@H]21 | -21.4% (inactive) |
| Cc1ccc(S(=O)(=O)N[C@H]2CC[C@H](CCNC(=O)C3CCCC3)O[C@@H]2CO)cc1 | -7.25% (inactive) |
| O=C(c1ccco1)N1N=C(c2cccs2)CC1c1ccc(F)cc1 (configuration not stated) | -39% (inactive) |
| C[C@@H]1CN([C@H](C)CO)C(=O)c2cc(NC(=O)Nc3cccc4ccccc34)ccc2O[C@@H]1CN(C)C(=O)Nc1ccccc1 | -5.06% (inactive) |
| CO[C@H]1CN(C)C(=O)c2cc(NC(=O)c3ccccc3F)ccc2OC[C@H](C)N(CC2CCOCC2)C[C@H]1C | 57% (inactive) |
| C[C@@H]1CN([C@@H](C)CO)S(=O)(=O)c2ccc(C#Cc3ccc(F)cc3)cc2O[C@H]1CN(C)C(=O)NC1CCCC1 | 39.2% (inactive) |
| O=C(C[C@@H]1CC[C@H]2[C@@H](COC[C@H](O)CN2Cc2cccc(C(F)(F)F)c2)O1)NCc1ccccc1 | -14.1% (inactive) |
| COCC#Cc1cnc2c(c1)C(=O)N([C@H](C)CO)C[C@@H](C)[C@@H](CN(C)C(=O)Nc1ccc(OC)cc1)O2 | -11.3% (inactive) |
| C[C@H](CO)N1C[C@H](C)[C@H](CN(C)Cc2ccccc2)Oc2cc(C#Cc3ccccn3)ccc2S1(=O)=O | -48.6% (inactive) |
| O=C(N[C@H]1CC[C@@H](CCn2cc(-c3ccccc3)nn2)O[C@@H]1CO)c1cnccn1 | 40.7% (inactive) |
| COCC(=O)N(C)C[C@@H]1Oc2ncc(C#CCC3CCCC3)cc2C(=O)N([C@H](C)CO)C[C@H]1C | 57.2% (inactive) |
| COc1cccc(S(=O)(=O)N(C)C[C@H]2OCc3cnnn3CCCC(=O)N([C@H](C)CO)C[C@H]2C)c1 | 38.2% (inactive) |
| C[C@@H](O)C#Cc1ccc([C@@H]2[C@H](CO)N3CCCCN(CC4CC4)C[C@@H]23)cc1 | -28.3% (inactive) |
| CCC(=O)Nc1ccc2c(c1)C(=O)N(C)C[C@H](OC)[C@@H](C)CN[C@H](C)CO2 | 29.1% (inactive) |
| C[C@@H]1CN([C@@H](C)CO)C(=O)c2cc(NC(=O)CCN3CCOCC3)ccc2O[C@@H]1CN(C)Cc1ccc(C(=O)O)cc1 | -11.9% (inactive) |
| CCC(=O)N1CCC1(C)C(=O)Nc1ccc(C)c(C)c1 (configuration not stated) | -11.7% (inactive) |
| CCC(=O)N1C[C@H](O)COC[C@@H]2O[C@@H](CC(=O)NCc3ccccc3Cl)CC[C@H]21 | 1.37% (inactive) |

| Compound | activity change, negative = cytotoxicity |
| --- | --- |
| CO[C@H]1CN(C)C(=O)c2cc(NC(=O)c3ccccc3F)ccc2OC[C@H](C)N(C(C)=O)C[C@H]1C | -16.7% (inactive) |
| COc1ccc(NC(=O)Nc2ccc3c(c2)C(=O)N([C@H](C)CO)C[C@@H](C)[C@H](CN(C)S(=O)(=O)c2ccc(Cl)cc2)OCCCC[C@@H](C)O3)cc1 | -9.56% (inactive) |
| COC(=O)C1=C(C)N(Cc2ccccc2)C(=S)NC1c1ccc(Cl)cc1 (configuration not stated) | -9.7% (inactive) |
| CCCC(=O)Nc1ccc2c(c1)C(=O)N(C)C[C@H](OC)[C@@H](C)CN(C(=O)c1cccnc1)[C@@H](C)CO2 | 4.75% (inactive) |
| CCC(=O)N(C)C[C@H]1Oc2cc(C#CC(C)(C)O)ccc2S(=O)(=O)N([C@@H](C)CO)C[C@@H]1C | 8.91% (inactive) |
| O=C1CCC(C(=O)Nc2ccc(Cl)cc2)N1 (configuration not stated) | 11% (inactive) |
| O=C(CSc1ncnc2c1cnn2-c1ccc(Cl)cc1)NCc1ccc2c(c1)OCO2 | -9.56% (inactive) |
| COc1ccc(NC(=O)N(C)C[C@H]2OCCCC[C@@H](C)Oc3ccc(NC(=O)c4ccccc4)cc3C(=O)N([C@@H](C)CO)C[C@H]2C)cc1 | 7.8% (inactive) |
| O=C(N[C@H]1CC[C@H](CCn2cc(-c3ccccn3)nn2)O[C@H]1CO)c1ccc(F)cc1 | -9.35% (inactive) |
| Cc1cc(C)c(NC(=O)C(C)N2CCCCCC2)c(C)c1 (configuration not stated) | 16.2% (inactive) |
| CC(NC(=O)COc1ccc([N+](=O)[O-])cc1)c1ccccc1 (configuration not stated) | 18.2% (inactive) |
| COCCNC(=O)C[C@@H]1C[C@H]2c3cc(NC(=O)C4CCC4)ccc3O[C@H]2[C@@H](CO)O1 | 3.65% (inactive) |
| COc1cc(NC(=O)CN2CCN(S(=O)(=O)c3ccc(C(C)C)cc3)CC2)cc(OC)c1 | 2.05% (inactive) |
| C[C@@H]1CN([C@@H](C)CO)C(=O)c2cc(NC(=O)Nc3ccccc3)ccc2O[C@@H]1CN(C)C(=O)Nc1cccc2ccccc12 | 203% (inactive) |
| COC(=O)N(C)C[C@H]1OCc2cn(nn2)CCCC(=O)N([C@@H](C)CO)C[C@@H]1C | -1.3% (inactive) |
| CNC(=O)C[C@H]1CC[C@H]2[C@@H](COc3ccc(NC(=O)Nc4cccc(C#N)c4)cc3C(=O)N2C)O1 | 23.1% (inactive) |
| O=C(NC(=S)Nc1ccccc1N1CCOCC1)c1cccc([N+](=O)[O-])c1 | -5.81% (inactive) |
| COc1ccc(CNC(=S)NCc2ccc(OC(C)C)cc2)cc1 | 19.2% (inactive) |
| CN1C(=O)c2cc(NS(C)(=O)=O)ccc2OC[C@@H]2O[C@@H](CC(=O)O)CC[C@H]21 | 4.2% (inactive) |

Same assay, conditions: HEK293T viability, ATP luminescence (CellTiter-Glo), 48 h; at 38 µM (top of the series)

| Compound | activity change, negative = cytotoxicity |
| --- | --- |
| CC(C)C(=O)N1CCC1(C)C(=O)Nc1ccccc1C(C)(C)C (configuration not stated) | -4.57% (inactive) |

Same assay, conditions: HEK293T viability, ATP luminescence (CellTiter-Glo), 48 h; at 42 µM (top of the series)

| Compound | activity change, negative = cytotoxicity |
| --- | --- |
| CCCC(=O)N1CCCC1(C)C(=O)Nc1cc(C)ccc1C (configuration not stated) | -20.6% (inactive) |

Same assay, conditions: HEK293T viability, ATP luminescence (CellTiter-Glo), 48 h; at 50 µM (top of the series)

| Compound | activity change, negative = cytotoxicity |
| --- | --- |
| Cc1ccc(OCC(=O)NCc2ccccc2)cc1 | 29% (inactive) |
